# Article PMC8811960, “A Novel 2-Carbon-Linked Dimeric Artemisinin With Potent Antileukemic Activity and Favorable Pharmacology” (Frontiers in Oncology, 2022)
# Where two headings read alike, the source gives them in different places.
# Tests used:
# U937 = experiment: alamarBlue growth inhibition, U937; format: cell-based; conditions: Homo sapiens, U-937, U937, 48h, mean of 2 independent assays ± SD
# Description: (§1) Cytotoxicity was assessed using alamarBlue assays (Life Technologies, Grand Island, NY) following manufacturer’s guidelines. Cell death was verified by Annexin V/7-aminoactinomycin D (7AAD) staining (BioLegend, San Diego, CA) per manufacturer’s guidelines.
# [1] = Stability in human plasma (EDTA); format: in vitro ADME; conditions: 10 µM, 37°C, 1h
# Description: The metabolic stability of ART631 was assessed in human and mouse plasma and liver microsomes (LM). For phase I microsomal stability assays, analogs (10 µM in <1% acetonitrile) were incubated in PBS containing liver microsomes, with or without cofactors ([22]). Microsomal controls (without cofactors) were used to determine non-enzymatic degradation. All experiments were incubated at 37°C for 1h and performed in duplicate. Reactions were stopped with acetonitrile and analyzed as described below.
# ART631 was extracted from 25 µL plasma or microsomal solutions with 100 µL acetonitrile containing artemisinin (i.e. the natural product) as internal standard. […] Mobile phase A was ammonium acetate (2mM) containing 0.1% formic acid, and mobile phase B was acetonitrile containing 0.1% formic acid. The gradient started with mobile phase B and was held at 40% for 0.5 minutes with a flow rate of 0.4 mL/min, then increased to 100% over 1.5 minutes and held for 2.0 minutes, and finally returned back to 40% mobile phase B and allowed to equilibrate for 2.0 minutes. An AB Sciex 5500 triple quadrupole mass spectrometer operated in positive electrospray ionization mode was used for the detection of ART631. For stability studies, the ratio of ART631 to the internal standard, artemisinin, was assessed. […]
# 10 human AML cell lines = experiment: alamarBlue growth inhibition, panel of 10 human AML cell lines; format: cell-based
# Description: as §1
# Cell lines with adverse risk cytogenetic and molecular features, e.g. MLL rearrangements (ML2, MOLM14, MV4;11, THP1), FLT3-ITD (MOLM14, MV4;11), TP53 mutations (KG1a, ML2, THP1, U937), and NRAS/KRAS mutations (ML2, THP1), were among those exquisitely sensitive to ART631, with IC50s < 50 nM. The K562 cell line was the only exception, as it was resistant to all 3 of these ARTs. Based on this in vitro activity data combined with the drug stability data described below, ART631 was prioritized over ART576 for further in vitro and in vivo antileukemic efficacy experiments here ( Table 2 ).
# [2] = Maximum tolerated dose in NRG mice; format: in vivo
# Description: Mice were dosed orally with ART631 at empirically determined maximally tolerated doses (MTDs) of 75 mg/kg ART631 as a single dose alone or 15 mg/kg as a multiple dose regimen (once daily x5), either alone or in combination with SOR (30 mg/kg/d) and VEN (150 mg/kg/d), for side-by-side comparison to the ART838, SOR and VEN combination evaluated previously ([20]). ART631, SOR, and VEN were mixed in vehicle and given as a single administration. Mice (n = 3/time point) were euthanized at 0.5, 1, 1.5, 2, 3, 4, 6, 8 and 12 h after dosing. ART631 was quantified in plasma as described below. Pharmacokinetic parameters were calculated from mean concentration-time data using non-compartmental methods in Phoenix WinNonlin version 8.3 (Certara, Princeton, NJ). The maximum plasma concentration (Cmax) and time to Cmax (Tmax) were the observed values. The AUClast was calculated using the log-linear trapezoidal method. AUC was extrapolated to infinity (AUCINF) by dividing the last quantifiable concentration by the terminal disposition rate constant (λz). The λz was determined from at least 3 points on the slope of the terminal phase of the concentration-time profile. The terminal half-life (T1/2) was determined by dividing 0.693 by λz. Apparent clearance (Cl/F) was calculated by dividing the dose administered by AUCINF. Apparent volume of distribution (V/F) was calculated by dividing Cl/F by λz. If the percent AUC extrapolated was >20% or the r^2 of λz was <0.85, the AUCINF, Cl/F, T1/2 and V/F were not reported.
# In pilot experiments, the MTD of ART631 was determined, in NRG (host strain for our AML xenograft models) mice, to be 75 mg/kg PO (gavage) for a single dose, or 15 mg/kg/d PO x5d every 14 days. When ART631 was combined with 150 mg/kg/d VEN and/or 30 mg/kg/d SOR, as was done previously with ART838 ([20]), ART631 was tolerated at the multiple dose MTD, and no further dose adjustments were made. The PK of ART631 was assessed at the MTD.
smiles,measurement,setting,value
C=CCO/N=C(/C[C@H]1O[C@@H]2O[C@@]3(C)CC[C@H]4[C@H](C)CC[C@@H]([C@H]1C)[C@@]24OO3)[C@H]1O[C@@H]2O[C@@]3(C)CC[C@H]4[C@H](C)CC[C@@H]([C@H]1C)[C@@]24OO3 [ART631],IC50,U937,20 ± 5 nM
same,"percentage remaining, Plasma (EDTA) Human",[1],60%
same,IC50,"10 human AML cell lines; Homo sapiens, ML2, MOLM14, MV4;11, THP1, KG1a, U937, read-out: IC50s in cell lines with adverse risk cytogenetic and molecular features",< 50 nM
same,number of human AML cell lines whose growth was inhibited,10 human AML cell lines; of 10 human AML cell lines tested,9
same,IC50,"10 human AML cell lines; range over the inhibited cell lines of 10 human AML cell lines, read-out: IC50 range",20 to 45 nM
same,tolerability when combined with VEN and/or SOR,[2]; ART631 at multiple dose MTD with 150 mg/kg/d VEN and/or 30 mg/kg/d SOR,tolerated
same,MTD,"[2]; mouse, in vivo, NRG mice, PO (gavage), single dose",75 mg/kg
same,MTD at 5 d,"[2]; mouse, in vivo, NRG mice, PO x5d every 14 days, read-out: MTD, multiple dose",15 mg/kg/day
